Test results taken from US7220822B2, “CD28 mimetics for blocking T cell mediated immune reactions” (The Ohio State University, priority 2000, dated 2007).
Square brackets hold non-standard residues; d marks the D form. Peptide text beside a SMILES is read from it.

Assays:
CD80-Ig = molecular target: T1, CD80-Ig (Homo sapiens, UniProt P33681); test: Direct kinetic analysis of CD28 peptide binding to immobilized CD80-Ig by surface plasmon resonance (BIACORE)
T1 construct: extracellular domain of CD80 fused with the constant region of mouse IgG1 heavy chain
T1 sequence (P33681 35-242 limits assumed, other chains not shown): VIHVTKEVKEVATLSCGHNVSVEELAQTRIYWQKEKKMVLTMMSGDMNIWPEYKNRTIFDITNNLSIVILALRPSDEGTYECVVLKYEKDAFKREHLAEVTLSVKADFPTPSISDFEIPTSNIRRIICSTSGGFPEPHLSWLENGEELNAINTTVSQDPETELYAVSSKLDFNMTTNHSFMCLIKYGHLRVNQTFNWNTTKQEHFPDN
Description: Binding experiments were performed by surface plasmon resonance (SPR) on an instrument sold under the trademark BIACORE™ from Pharmacia Biosensor (Uppasala, Sweden).
CD80-Ig (extracellular domain of CD80 fused with the constant region of mouse IgG1 heavy chain) at 35 μg/ml in 10 mM sodium acetate buffer, pH 4.2, was coupled to a research grade CM 5 sensor chip using a standard amine coupling procedure with the following modifications (38). To reduce the immobilization level of the ligand, the surface was activated for 3 (instead of 7) minutes with N-hydroxysuccinamide and […]. […] Following coupling, noncovalently bound ligand was removed by washing twice with 5 mM NaOH.
The analytes were also injected at the same concentration and injection times over an empty flow cell with nothing immobilized.
Data analysis was performed with BIAEVALUATION™ software version 2.1(Pharmacia Biosensor AB). […] Prior to kinetic analysis, data were adjusted to zero baseline level by subtracting the background responses obtained by injection of the analytes through a control flow cell with no ligand immobilized. First, the dissociation rate constant, kd, (units: s^−1) was determined, by fitting experimental data from the buffer flow part of the sensogram to the equation R(t)=R1*e^−kd*(t^0^−t^1^) (1) where t0 is the injection time, R1 is the response level at the start of dissociation time t1 and kd is the dissociation rate constant.
The kd value obtained was used as a constant during the analysis of the injection phase data. Binding data above the noise level was selected by converting the sensogram to a plot of the logarithm of the binding rate vs time (dR/dt vs. time). The ka was determined by nonlinear curve fitting of the following equation R(t)=Req*{1−e^−(k^a^*C+k^d^)*(t) (2) where R(t) is the response at time t, Req is the steady state response level, ka is the association rate constant (units: M^−1s^−1), kd is the dissociation rate constant and C is the concentration of the injected peptide analyte. An offset was added to account for the refractive index differences between the analyte and the running buffer.
After analyzing sensograms obtained from injections of increasing concentrations of peptide analytes or CD28-Ig, the experimental data was analyzed using the BIAsimulation software 2.1. A plot of the logarithm of (dR/dt) against time was calculated from the sensograms, and then the slopes at different concentrations were plotted against the concentrations of the peptide analyte. Different angles obtained of the linear lines represent the variation of affinities, which gives the association rate constant (ka) from the equation ln dR/dt=ln(kaCR max)−KaC+kd)t (4) where dR/dt is the rate of change of the SPR signal, C is the concentration of the analyte, Rmax is the maximum analyte binding capacity in RU and R is the SPR signal in RU at time t. The dissociation rate constant is obtained from the equation Kd=kd/ka (5)

B10.PL mice with EAE = test: EAE in B10.PL mice immunized with GP-MBP in CFA, clinical score; type: in vivo, mouse; conditions: for mean maximal clinical score: single i.v. 500 μg on day 14 post-immunization (established EAE); for maximum disease incidence / maximum mean cumulative score per day: single i.v. 500 μg on the day of immunization
Description: Female B10.PL mice (6–8 wk old) were obtained from The Jackson laboratory (Bar Harbor, Me.) and housed at the Ohio State University, (Columbus, Ohio).
Mice were injected subcutaneously over four sites on the flank with an emulsion containing 200 μg of guinea-pig-MBP in CFA containing 200 μg heat killed Mycobacterium tuberculosis, Jamaica strain. Pertussis toxin (List Biological, Campbell, Calif.) at 150 ng in 0.2 ml of PBS was given intraperitoneally at the time of immunization and 48 hours later. Animals were observed daily for clinical signs and scored as follows: 1, limp tail or waddling gait with tail tonicity; 2, waddling gait with limp tail (ataxia); 2.5 ataxia with partial paralysis of one limb, 3, partial hind-limb paralysis, 3.5 full paralysis of one limb with partial paralysis of the second limb, 4, full paralysis of two limbs, 4.5 moribund and 5, death. All mice immunized with MBP (200 μg) in CFA developed clinical disease varying between ataxia and complete hind limb paralysis by day 14 post-immunization. They were then distributed randomly into six groups with mean clinical score of each group approximately the same.
Groups of mice were left untreated or injected intravenously with 500 μg of EL CD28 or RI CD28 peptide mimetics, or LCD28, RLCD28 and DCD28 peptides. The mean clinical score of untreated mice continued to increase reaching a maximum of 3.4 on day 20. Similarly the disease continued to progress in mice treated with LCD28, RLCD28 and DCD28, reaching mean maximal clinical score of 3.8 (day 18), 3.4 (day 16 ) and 3.7 (day 16) respectively.
The biological activity of synthetic CD28 peptide analogues during antigen priming in vivo in EAE was then shown. B10.PL mice immunized with GP-MBP (200 μg) in CFA were either left untreated or injected intravenously 500 μg of EL CD28 or RI CD28 peptide mimetics or LCD28, RLCD28 and DCD28 peptides on the day of immunization. The vehicle treated mice and mice treated with: LCD28, RL CD28 and D CD28 peptide had maximum disease incidence of 100%, 100%, 91.5% and 91.5% and maximum mean cumulative score per day of 1.9, 1.8, 1.7 and 2 respectively. […] The effect of RI CD28 peptide injection lasted for the duration of observation (37 days) in one experiment.

[1] = tested on: CD4+ LNC from Vα4/Vβ8.2 TCR transgenic mice; type: cell-based, mouse; conditions: CD4+ LNC and spleen cells, NAc 1-11 10 μg/ml, all concentrations used
Description: The in vitro effect of varying concentration of the CD 28 peptide mimetics on CD4+ lymph node cells and spleen cells from transgenic mice bearing the Vα 4 Vβ8.2 TCR specific for MBP Ac 1-11 was determined.
CD4+ T cells were purified from pooled peripheral lymph nodes (inguinal, axillary, brachial, cervical, popliteal), and mesenteric lymph nodes and spleen of 6–8 wk old Vα4/Vβ8.2 TCR transgenic mice by positive selection. Single cell suspensions were prepared by lympholyte M gradient, washed, counted and incubated with magnetic bead conjugated anti-mouse CD4 (L3T4) (Miltenyi Biotech Corporation) followed by positive selection using magnetic selection columns. Purity of the CD4^+ cells was greater than 90% as assessed by staining with FITC labeled anti-mouseVβ8.2 mAb (Pharmingen). During the selection process, T cells maintain a naïve phenotype with no evidence for T cell activation as measured by proliferation in culture. Purified CD4+ T-cells (5×10^4 cells/well) were cultured together with wild type splenocytes from B10.PL mice as APC's (10^5 cells/well) in RPMI 1640 containing 10% FCS, 25 mM HEPES, 2 mM L-glutamine, 50 U/ml penicillin, 50 μg/ml streptomycin, and 5×10–5 M 2-ME in round-bottom 96-well plates and MBP (40 μg/ml) or MBP NAc1-11 (10 μg/ml) or media only in the presence or absence of synthetic CD28 peptide analogues at different concentrations in triplicate wells for 72 h, including a final 18-h pulse with [^3H] thymidine. Cultures were harvested onto glass-fiber mats using a Skatron harvester (Skatron, Sterling, Va.) and were counted by liquid scintillation on LKB Betaplate (LKB, Rockville, Md.). The means of the triplicate were determined and the results are expressed as delta cpm (mean counts per minute of cultures with Ag-mean counts per minute of cultures with medium alone)±SD.

[2] = tested on: lymph node cells of MBP-primed mice; test: IL-2 ELISPOT of draining lymph node cells from peptide-treated MBP-immunized mice; type: in vivo, mouse; conditions: mice treated on day 0 of immunization, ELISPOT on restimulation
Description: Ninety-six well unifilter plates (Polyfiltronics, Rockland, Md.) were coated overnight at 4° C. with rat anti-mouse IL-2 (Clone JES6-1A12) (Pharmingen, Calif.) at 4 μg/ml. The plates were then washed 4× with sterile PBS and blocked with 1% BSA in DMEM for 2 h at room temperature. Subsequently, isolated single cell suspensions of CD4+ LNC (5×10^6 cells/ml) and splenocytes (10×10^6 cells/ml) were added with the antigens and CD28 peptides under the conditions as specified for the proliferation assays. After 24 h of culture in the incubator, the cells were removed by washing 3× with PBS and 4× with PBS containing Tween (1:2000) (PBST). Then biotinylated anti mouse-IL-2 (Clone JES6-5H4) (Pharmingen, Calif.) 2 μg/ml was added and incubated at 4° C. overnight. After washing 3× with PBST and 3× with PBS, goat anti-biotin antibody conjugated to alkaline phosphatase (Vector Laboratories Inc, Burlingame, Calif.) diluted to 1:1000 in PBST containing 1% BSA was added and incubated for 2 h at room temperature. The spots were visualized by adding BCIP/NBT phosphatase substrate (Kirkeguard & Perry Laboratories, Gaithesburg, Md.). Image analysis of ELISA spot assays was performed on a Series 1 Immunospot Image Analyzer (Autoimmun Diagnostika (US) Inc.) customized for analyzing ELISA spots to meet objective criteria for size, chromatic density, shape and color.
MBP reactive T cells that induce EAE are known to display a Th1 phenotype secreting the proinflammatory cytokines IL-2, […] and TNF-β (36. Kay, B. K., M. P. Williamson, and M. Sudol. 2000. Faseb J 14, no. 2:231). ELISPOT assay was used to assess in vitro cytokine production by draining lymph node cells and splenocytes upon restimulation from in vivo MBP-primed T cells. Mice were treated as described in Example 3, on day 0 of immunization.

| Compound | maximum response units obtained for binding to CD80-Ig (CD80-Ig; SPR direct binding) | mean maximal clinical score (B10.PL mice with EAE) | maximum disease incidence (B10.PL mice with EAE) | maximum mean cumulative score per day (B10.PL mice with EAE) | proliferative response / inhibition of T cell proliferation (in words) [1] | frequency of IL-2 secreting lymph node cells [2] | binding to CD80-Ig (in words) (CD80-Ig; data not shown) |
| --- | --- | --- | --- | --- | --- | --- | --- |
| CC[C@H](C)[C@H](NC(=O)[C@@H](NC(=O)CNC(=O)[C@H](CC(N)=O)NC(=O)[C@H](CO)NC(=O)[C@H](CCCNC(=N)N)NC(=O)[C@H](CCC(=O)O)NC(=O)[C@H](CC(N)=O)NC(=O)[C@H](CC(=O)O)NC(=O)[C@H](CC(C)C)NC(=O)[C@H](Cc1ccc(O)cc1)NC(=O)[C@@H]1CCCN1C(=O)[C@@H]1CCCN1C(=O)[C@@H]1CCCN1C(=O)[C@H](Cc1ccc(O)cc1)NC(=O)[C@H](CCSC)NC(=O)[C@H](Cc1ccccc1)NC(=O)[C@H](CCC(=O)O)NC(=O)[C@@H](NC(=O)[C@@H](N)CCCCN)[C@@H](C)CC)[C@@H](C)O)C(=O)O [L CD28, NH2KIEFMYPPPYLDNERSNGTICOOH] (H-KIEFMYPPPYLDNERSNGTI-OH) | 478 RU | 3.8 | 100% | 1.8 | significantly less |  |  |
| CH3COD[KIEFMYPPPYLDNERSNGTI]DCONH2 (Ac-[dK][dI][dE][dF][dM][dY][dP][dP][dP][dY][dL][dD][dN][dE][dR][dS][dN]G[dT][dI]-NH2) [D CD28, D-peptide (Control), reference compound] |  | 3.7 | 91.5% | 2 | did not show inhibition | 2675+/−14.2 |  |
| CH3COL[ITGNSRENDLYPPPYMFEIK]LCONH2 (Ac-ITGNSRENDLYPPPYMFEIK-NH2) [RL CD28, Reverse-L-peptide (Control), reference compound] |  | 3.4 | 91.5% | 1.7 | did not show inhibition | 3386+/−23.3 |  |
| MYPPPY (listed as Homo sapiens) [hexapeptide, reference compound] |  |  |  |  | did not show inhibition |  | did not bind |
